Results on 25 compounds are retold here after PMC5532363, “Synergistic blending of high-valued heterocycles inhibits growth of Plasmodium falciparum in culture and P. berghei infection in mouse model” (Scientific Reports, 2017).

In data set [1] the test system is P. falciparum 3D7 (Pf3D7), CQ sensitive. Briefly: SYBR Green I growth inhibition assay, asynchronous P. falciparum 3D7 culture. The following applies: for IC50 (SE) µM / IC50 (SE) µg/mL: Pf3D7, asynchronous culture; for IC50: Plasmodium falciparum. The class given is cell-based, Plasmodium falciparum. From the text:
Antimalarial activity of all the listed Pht analogues was initially assessed on asynchronous cultures of P. falciparum 3D7 (Pf3D7) clone using the SYBR Green assay. […] The mean IC50 values are based on three separate experiments (Table 1).
The laboratory-adapted P. falciparum strains 3D7 (Africa; CQ sensitive) and W2 (Africa; CQ resistant), were acquired from Malaria Research and Reference Reagent Resource Center (MR4) (Manassas, VA, USA) and maintained with type O +ve erythrocytes suspended in continuous complete culture medium as described. Complete culture media consisted of 10.43 g/litre of RPMI 1640-HEPES supplemented with 10% (vol/vol) human AB serum, 92.6 mg/litre L-glutamine, 50 mg/liter hypoxanthine, 2 g/litre sodium bicarbonate (Sigma-Aldrich, St. Louis, MO). Incubation of cultures was at 37 °C and maintained in a low oxygen atmosphere (5% O2, 5% CO2, 90% N). The levels of parasitemia in the cultures were maintained at between 2 and 10%, with 5% hematocrit. Media was changed after every 24 hours and parasitemia monitored every 48 hours. Synchronous cultures were prepared by sorbitol lysis. Stock solutions of the Pht, Pht analogues, and DHA were prepared in absolute dimethyl sulfoxide (DMSO) while CQ was prepared in distilled water. The prepared drug stock solutions were used immediately or stored at −80 °C for not longer than one month before use. Stock solutions were further diluted in serum free RPMI 1640 media (stock solution solvent final conc. 0.05%) before performing a 2-fold serial dilution to achieve dose ranges of 0.2 µM to 100 µM (Pht and derivatives), 7.8 to 2,000 nM (CQ) and 0.17 to 87.5 nM (DHA). 25 μL of the drug diluents were aliquoted into 96 well plates and used immediately. Alternatively, the stock solutions were diluted in distilled water, 2-fold serial dilution performed on a 96 well plate and allowed to air dry in a laminar flow hood after which dried plates were stored at 4 °C until use. SYBR Green I assay technique with additional modification was used for drug susceptibility testing of the parasites. Parasite cultures of >1% parasitemia were diluted to 1% parasitemia and 2% hematocrit and 200 μL were transferred onto drug pre-dosed plates and incubated at 37 °C for 90 hours, [40]. Drug exposure was terminated by freezing the drug plates at −80 °C for 24 hours after which lysis buffer containing (per liter) 100 mM Tris-HCl, 10 mM EDTA, 0.016% Saponin, 1.6% triton X-100 and 20X SYBR Green I dye was added and the sample incubated for 2 hours in the dark. Relative fluorescence units (RFU) were read using the Perkin Elmer Wallac 1420 fluorescence plate reader, with excitation and emission wavelengths of 485 nm and 535 nm respectively. The readouts values were aligned with corresponding drug doses and analysis performed by Graph-pad Prism software. The drug concentrations (x value) were transformed using X = Log[X] and plotted against the counts (y values) and the data analysed by non-linear regression (sigmoid dose-response/variable slope equation) to yield the IC50.

The mark [2] stands for this setting: SYBR Green, mean of three experiments, NDR / No IC50 = no dose response.
Where [3] appears, read: 3D7, Pf3D7, asynchronous culture, SYBR Green, mean of three experiments, NDR / No IC50 = no dose response, read-out: IC50 (SE) µM.
Where [4] appears, read: 3D7, Pf3D7, asynchronous culture, SYBR Green, mean of three experiments, NDR / No IC50 = no dose response, read-out: IC50 (SE) µg/mL.

The melting point is the temperature of the solid-liquid transition.

Read-outs that look alike come from different tables or passages of the source.

Regarding `CCOC(=O)Cn1cc(Cn2c([C@@H](C(C)C)N3C(=O)c4ccccc4C3=O)nc3ccccc32)nn1` [6a′], in data set [1] (setting [2]), the “IC50 (SE) µM” value was “No IC50” and the “IC50 (SE) µg/mL” value is reported as “No IC50”.
For the compound `CC(C)[C@H](c1nc2ccccc2n1Cc1cn(CC(=O)O)nn1)N1C(=O)c2ccccc2C1=O` [6b′], the IC50 came to 7.2 µM in data set [1] (setting [3]) and 3.8 µg/mL in data set [1] (setting [4]).
The corresponding values for `CC(C)[C@H](c1nc2ccccc2n1Cc1cn(C2O[C@@H](CO)C(O)[C@@H](O)[C@@H]2O)nn1)N1C(=O)c2ccccc2C1=O` (stereo partly drawn) [6d′] are 48.3 µM and 20 µg/mL.
Take `CCCCCCn1cc(Cn2c([C@@H](C(C)C)N3C(=O)c4ccccc4C3=O)nc3ccccc32)nn1` [6e′]: the IC50 stood at 16.7 µM in data set [1] (setting [3]) and 6.9 µg/mL in data set [1] (setting [4]).
With `CCN(CC)CCCC(C)Nc1ccnc2cc(Cl)ccc12` (stereo not drawn) [CQ, chloroquine, reference compound], the IC50 in data set [1] (3D7, read-out: IC50 (SE) µM) came out at 0.03 µM; in data set [1] (3D7, read-out: IC50 (SE) µg/mL), 0.015 µg/mL.
In the case of `CC(C)C[C@H](c1nc2ccccc2n1Cc1cn(-c2ccc(Cl)cc2)nn1)N1C(=O)c2ccccc2C1=O` [Compound 6b], in data set [1] (setting [2]), the “IC50 (SE) µM” value was “NDR” and the “IC50 (SE) µg/mL” value was “NDR”.
As for `CC(C)C[C@H](c1nc2ccccc2n1Cc1cn(-c2ccc(F)cc2)nn1)N1C(=O)c2ccccc2C1=O` [Compound 6c], the IC50 in data set [1] (setting [3]) was 17.3 µM; in data set [1] (setting [4]), 8.8 µg/mL.
Turning to `COc1ccc(-n2cc(Cn3c([C@@H](CC(C)C)N4C(=O)c5ccccc5C4=O)nc4ccccc43)nn2)cc1` [Compound 6d], in data set [1] (setting [2]), the “IC50 (SE) µM” value is on record as “NDR” and the “IC50 (SE) µg/mL” value is recorded as “NDR”.
For `Cc1ccc(-n2cc(Cn3c([C@@H](CC(C)C)N4C(=O)c5ccccc5C4=O)nc4ccccc43)nn2)cc1` [Compound 6e], the figures for the IC50 in data set [1] (setting [3]) and in data set [1] (setting [4]) were 25 µM and 13 µg/mL, respectively.
Compound `CC[C@@H](C)[C@H](c1nc2ccccc2n1Cc1cn(-c2ccccc2)nn1)N1C(=O)c2ccccc2C1=O` [Compound 6f] came in with a melting point of 211 to 213 °C. Further, in data set [1] (setting [2]), the “IC50 (SE) µM” value is listed as “NDR” and the “IC50 (SE) µg/mL” value is given as “NDR”.
`CC[C@@H](C)[C@H](c1nc2ccccc2n1Cc1cn(-c2ccc(Cl)cc2)nn1)N1C(=O)c2ccccc2C1=O` [Compound 6g] displayed a melting point of 194 to 196 °C. Also, in data set [1] (setting [2]), the “IC50 (SE) µM” value is reported as “NDR” and the “IC50 (SE) µg/mL” value is “NDR”.
`CC[C@@H](C)[C@H](c1nc2ccccc2n1Cc1cn(-c2ccc(OC)cc2)nn1)N1C(=O)c2ccccc2C1=O` [Compound 6i] showed a melting point of 135 to 137 °C. In addition, the IC50 in data set [1] (setting [3]) was 40 µM. Further, the IC50 in data set [1] (setting [4]) is 22.5 µg/mL.
For `CC[C@@H](C)[C@H](c1nc2ccccc2n1Cc1cn(-c2ccc(C)cc2)nn1)N1C(=O)c2ccccc2C1=O` [Compound 6j], in that order: 198 to 201 °C, 73 µM and 33.4 µg/mL.
For `CC(C)[C@H](c1nc2ccccc2n1Cc1cn(-c2ccccc2)nn1)N1C(=O)c2ccccc2C1=O` [Compound 6k], in that order: 221 to 223 °C, 30.9 µM and 16 µg/mL.
`CC(C)[C@H](c1nc2ccccc2n1Cc1cn(-c2ccc(Cl)cc2)nn1)N1C(=O)c2ccccc2C1=O` [Compound 6l] gave a melting point of 182 to 184 °C. For the same compound, in data set [1] (setting [2]), the “IC50 (SE) µM” value is given as “NDR” and the “IC50 (SE) µg/mL” value is given as “NDR”.
`COc1ccc(-n2cc(Cn3c([C@@H](C(C)C)N4C(=O)c5ccccc5C4=O)nc4ccccc43)nn2)cc1` [Compound 6n] had a melting point of 125 to 127 °C. In data set [1] (setting [3]), the IC50 was determined as 9.6 µM. The IC50 in data set [1] (setting [4]) is 5.5 µg/mL.
For `Cc1ccc(-n2cc(Cn3c([C@@H](C(C)C)N4C(=O)c5ccccc5C4=O)nc4ccccc43)nn2)cc1` [Compound 6o], in that order: 169 to 171 °C, 23.5 µM and 17.5 µg/mL.
The corresponding values for `CCOC(=O)Cn1cc(Cn2c([C@@H](CC(C)C)N3C(=O)c4ccccc4C3=O)nc3ccccc32)nn1` [Compound 6p] are 147 to 149 °C, 62 µM and 31 µg/mL.
With `CC(C)C[C@H](c1nc2ccccc2n1Cc1cn(CC(=O)O)nn1)N1C(=O)c2ccccc2C1=O` [Compound 6q], the IC50 in data set [1] (setting [3]) amounted to 8.4 µM; in data set [1] (setting [4]), 4.1 µg/mL.
`CCCCCCn1cc(Cn2c([C@@H](CC(C)C)N3C(=O)c4ccccc4C3=O)nc3ccccc32)nn1` [Compound 6t]: the melting point lay in the range of 146 to 148 °C. Also, in data set [1] (setting [3]), the IC50 stood at 28 µM. Also, the IC50 in data set [1] (setting [4]) was found to be 14 µg/mL.
Take `CCOC(=O)Cn1cc(Cn2c([C@@H]([C@H](C)CC)N3C(=O)c4ccccc4C3=O)nc3ccccc32)nn1` [Compound 6v]: in data set [1] (setting [2]), the “IC50 (SE) µM” value is reported as “No IC50” and the “IC50 (SE) µg/mL” value is listed as “No IC50”.
As to `CC[C@@H](C)[C@H](c1nc2ccccc2n1Cc1cn(CC(=O)O)nn1)N1C(=O)c2ccccc2C1=O` [Compound 6w], the values for the IC50 in data set [1] (setting [3]) and in data set [1] (setting [4]) were 15.6 µM and 11.6 µg/mL, respectively.
In the case of `CC[C@@H](C)[C@H](c1nc2ccccc2n1Cc1c[nH]nn1)N1C(=O)c2ccccc2C1=O` [Compound 6z], in data set [1] (setting [2]), the “IC50 (SE) µM” value is given as “No IC50” and the “IC50 (SE) µg/mL” value was “No IC50”.
Consider `C[C@H]1[C@@H](O)O[C@@H]2O[C@@]3(C)CC[C@H]4[C@H](C)CC[C@@H]1[C@@]24OO3` [DHA, dihydroartemisinin, reference compound], for which the IC50 in data set [1] (setting [3]) is 0.003 µM; in data set [1] (setting [4]), 0.0017 µg/mL.
The corresponding values for `O=C1NC(=O)c2ccccc21` [I, Phthalimide, reference compound] are 5.14 µM and 0.8 µg/mL.
